# doi:10.1101/2022.04.05.487228v1 (biorxiv, 2022)
# Biological target: bovine rod opsin (unliganded, in ROS membranes) (Bos taurus, UniProt P02699)
# Assay: intrinsic Trp fluorescence quenching at […] nm
# Assay type: binding
# bovine rod opsin (unliganded, in ROS membranes), sequence (P02699 whole entry): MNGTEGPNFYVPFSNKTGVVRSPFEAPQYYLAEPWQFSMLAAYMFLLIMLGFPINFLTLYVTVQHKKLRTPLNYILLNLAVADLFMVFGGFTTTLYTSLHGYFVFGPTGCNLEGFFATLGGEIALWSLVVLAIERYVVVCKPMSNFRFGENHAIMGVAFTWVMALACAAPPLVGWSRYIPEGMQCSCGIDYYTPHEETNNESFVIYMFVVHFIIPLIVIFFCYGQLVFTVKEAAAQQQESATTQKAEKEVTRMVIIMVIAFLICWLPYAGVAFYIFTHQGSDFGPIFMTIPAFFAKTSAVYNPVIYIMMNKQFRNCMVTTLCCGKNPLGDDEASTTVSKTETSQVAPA
row,SMILES,EC50 [nM]
1,Cc1cc(=O)oc2cc(OC(C(=O)c3ccccc3)c3ccccc3)ccc12 (stereo not shown) [CR1],275 ± 26
2,Cc1c(OCc2ccc(C(=O)O)cc2)ccc2c3c(c(=O)oc12)CCC3 [CR2],375 ± 21
3,Cc1ccc(C(=O)Oc2ccc3c4c(c(=O)oc3c2)CCCC4)cc1 [CR3],207 ± 46
4,Cc1c(OC(C)C(=O)OCc2ccccc2)ccc2c3c(c(=O)oc12)CCC3 (stereo not shown) [CR4],171 ± 23
